Our source for the melting point values is US8242118B2, “Arylsulfonamide derivatives for use as CCR3 antagonists in the treatment of inflammatory and immunological disorders” (Axikin Pharmaceuticals Inc., priority 2001, dated 2012).

The structures appear in SMILES notation. Structures can show the parent of a compound that is named as a salt.

`Cc1cc(C)cc(Oc2cc(Br)cc(S(=O)(=O)N3CCNCC3)c2)c1` (as salt: hydrochloride) [Example 24-1, 1-{[3-bromo-5-(3,5-dimethylphenoxy)phenyl]sulfonyl}piperazine hydrochloride]: the melting point (commonly the temperature of the solid-liquid transition) is > 84 °C (dec.).

`Cc1cc(C)cc(Sc2ccc([N+](=O)[O-])cc2S(=O)(=O)N2CCNCC2)c1` (as salt: hydrochloride) [Example 2-1, 1-({2-[(3,5-dimethylphenyl)-sulfanyl]-5-nitrophenyl}sulfonyl)piperazine hydrochloride] gave a melting point of 225 to 227 °C.

`Cc1cc(C)cc(Oc2ccc(S(=O)(=O)N3CCNCC3)cc2S(=O)(=O)N2CCNCC2)c1.Cl.Cl` showed a melting point of 214 to 220 °C.

In turn, `N#Cc1ccc(Oc2cc(Cl)cc(Cl)c2)c(S(=O)(=O)N2CC[C@H](N)C2)c1` (as salt: hydrochloride) [Example 13-1, 1-{5-cyano-2-(3,5-dichlorophenoxy)phenylsulfonyl}-(3S)-aminopyrrolidine hydrochloride] displayed a melting point of 276 °C.

`N#Cc1ccc(Oc2cc(Cl)cc(Cl)c2)c(S(=O)(=O)N2CCC(N3CCCC3)CC2)c1` [Example 6-5] yielded a melting point of 186 to 187 °C.

The molecule `Cc1cc(C)cc(Oc2ccc(-c3nnnn3CCC#N)cc2S(=O)(=O)N2CCNCC2)c1` (as salt: hydrochloride) [Example 22-3, 3-{5-[4-(3,5-dimethylphenoxy)-3-(1-piperazinylsulfonyl)phenyl]-1H-tetraazol-1-yl}propanenitrile hydrochloride] returned a melting point of 125 °C.

`O=[N+]([O-])c1ccc(Oc2cc(Cl)cc(Cl)c2)c(S(=O)(=O)N2CCC(N3CCCC3)CC2)c1` [Example 4-1, 1-{[2-(3,5-dichlorophenoxy)-5-nitrophenyl]sulfonyl}-4-(1-pyrrolidinyl)piperidine] displayed a melting point of 217 to 218 °C.
